We go through eleven compounds from ChEMBL document CHEMBL1201862, “PubChem BioAssay data set” (2004).

SMILES strings stand for the structures.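 Each compound was tested at five concentrations against cells in 96-well plates for 48 hours. At the GI50, growth is halved.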 Active and inactive are the calls of the source. No stated cut-off is given here; in the data, active = GI50 up to about 1.1 µM and inactive = higher.

Among the test systems are SF-295; EKVX; DU-145; SNB-75; SNB-19; MOLT-4; HOP-92; SW-620; M14; SF-268; OVCAR-4; NCI/ADR-RES; NCI-H23; UO-31; HOP-62; HCC 2998; U-251; A498; K562; SK-MEL-2.
What all share (experiment): growth of human tumour cells (NCI), 48 h

For `O=[N+]([O-])c1ccc2[nH]c(-c3ccc(Cl)cc3)nc2c1`, the GI50 in the experiment on SF-295 is 20.3 µM (inactive); in the experiment on EKVX it was 14.4 µM (inactive); with DU-145, 25.2 µM (inactive); in the experiment with SNB-75 it was 25 µM (inactive); in the experiment with SNB-19 it was 26 µM (inactive); with MOLT-4, 25.4 µM (inactive). Also, the GI50 in the experiment on HOP-92 was 29 µM (inactive); with SW-620 it was 32.7 µM (inactive); with M14 it was 19.1 µM (inactive); with SF-268 it was 19 µM (inactive); in the experiment on OVCAR-4, 32.7 µM (inactive); with NCI/ADR-RES, 21.2 µM (inactive). In addition, the figures for the GI50 with NCI-H23, with UO-31 and with HOP-62 were 25.3 µM (inactive), 23.9 µM (inactive) and 21.5 µM (inactive), respectively.

For `NNc1nnc(-c2nnc(NN)o2)o1`, the GI50 in the experiment on SF-295, in the experiment with HCC 2998, in the experiment on EKVX, in the experiment with DU-145, in the experiment on U-251 and in the experiment with SNB-19 was > 10 µM (inactive) throughout. Further, the GI50 in the experiment with MOLT-4, in the experiment with HOP-92, in the experiment with SW-620, with M14, with SF-268 and in the experiment with A498 was > 10 µM (inactive) in each case. For the same compound, the GI50 with OVCAR-4, with NCI/ADR-RES, in the experiment on NCI-H23, in the experiment on UO-31, with K562 and with HOP-62 was > 10 µM (inactive) throughout.

As to `COC(=O)c1ccccc1C1CN=NC12Cc1c(ccc3c1CCC3)C2=O` (configuration not stated), the GI50 is 47.3 µM (inactive) with SF-295; > 100 µM (inactive) with HCC 2998; 45.9 µM (inactive) in the experiment with EKVX; > 100 µM (inactive) in the experiment with DU-145; 35.1 µM (inactive) in the experiment on SK-MEL-2; 51.8 µM (inactive) in the experiment on SNB-75. Moreover, the GI50 is 41 µM (inactive) in the experiment on U-251; > 100 µM (inactive) in the experiment on SNB-19; 30.5 µM (inactive) in the experiment with MOLT-4; 27.4 µM (inactive) in the experiment on HOP-92; 65.3 µM (inactive) in the experiment on SW-620; 46.5 µM (inactive) in the experiment on M14. In addition, the GI50 was > 100 µM (inactive) in the experiment on SF-268; 45.2 µM (inactive) in the experiment on OVCAR-4; 31.1 µM (inactive) in the experiment on NCI/ADR-RES; 66.2 µM (inactive) with NCI-H23; 80.5 µM (inactive) in the experiment with UO-31; 39.1 µM (inactive) in the experiment with K562. Further, the GI50 in the experiment on HOP-62 is > 100 µM (inactive).

As to `COc1ccc(CCCCNCc2cccc(CNCCCCc3ccc(OC)cc3)c2)cc1`, the GI50 was 1.93 µM (inactive) in the experiment with SF-295; 0.308 µM (active) in the experiment with HCC 2998; 1.81 µM (inactive) in the experiment with EKVX; 1.88 µM (inactive) with DU-145; 1.91 µM (inactive) with SK-MEL-2; 1.76 µM (inactive) with SNB-75. Further, the GI50 with U-251 was 1.85 µM (inactive); with SNB-19 it was 1.71 µM (inactive); in the experiment on MOLT-4 it was 2.18 µM (inactive); in the experiment on HOP-92 it was 1.44 µM (inactive); in the experiment with SW-620, 2.23 µM (inactive); in the experiment with M14, 1.69 µM (inactive). For the same compound, the GI50 in the experiment with SF-268 was 1.76 µM (inactive); with OVCAR-4, 2.03 µM (inactive); with NCI/ADR-RES, 1.8 µM (inactive); in the experiment on NCI-H23 it was 1.78 µM (inactive); in the experiment with UO-31 it was 1.35 µM (inactive); in the experiment on K562, 1.36 µM (inactive). Moreover, in the experiment with HOP-62, the GI50 was 2.19 µM (inactive).

With `CC1CCCN(CC(O)CN2CCCc3ccccc32)C1` (configuration not stated), the GI50 with SF-295, with EKVX, in the experiment with DU-145, in the experiment with SK-MEL-2, in the experiment on SNB-75 and with U-251 was > 100 µM (inactive) throughout. The GI50 in the experiment on SNB-19, in the experiment with MOLT-4, in the experiment on SW-620, with M14, in the experiment on SF-268 and in the experiment with A498 was > 100 µM (inactive) in each case. Besides, the GI50 in the experiment with OVCAR-4 was > 100 µM (inactive); with NCI/ADR-RES it was > 100 µM (inactive); with NCI-H23, > 100 µM (inactive); in the experiment with UO-31 it was 76 µM (inactive); with K562, > 100 µM (inactive); in the experiment on HOP-62, > 100 µM (inactive).

In the case of `CC(=O)OCC1OC(n2ncc(=O)[nH]c2=O)C(OC(C)=O)C1OC(C)=O` (configuration not stated), the GI50 in the experiment with SF-295 is 5.27 µM (inactive); in the experiment with HCC 2998, 26.1 µM (inactive); in the experiment with DU-145, 23 µM (inactive); in the experiment with SNB-75 it was 40.3 µM (inactive); in the experiment on U-251, 1.09 µM (active); in the experiment on MOLT-4, 1.32 µM (inactive). Further, the GI50 in the experiment with HOP-92 is > 100 µM (inactive); in the experiment with SW-620, 1.4 µM (inactive); with M14 it was 73.5 µM (inactive); in the experiment on SF-268, 5.33 µM (inactive); with OVCAR-4, > 100 µM (inactive); in the experiment with NCI/ADR-RES, 61.7 µM (inactive). The GI50 in the experiment with NCI-H23 was 68.5 µM (inactive); in the experiment with K562 it was 0.832 µM (active); in the experiment on HOP-62, 21.7 µM (inactive).

With `COC(=O)C1=C(C(=O)OC)C(OO)(c2ccccc2)OC1=O` (configuration not stated), the GI50 in the experiment on SF-295 is > 100 µM (inactive); in the experiment on HCC 2998 it was > 100 µM (inactive); in the experiment on EKVX, > 100 µM (inactive); with DU-145 it was > 100 µM (inactive); with SK-MEL-2 it was 55.2 µM (inactive); with SNB-75 it was 50.7 µM (inactive). Also, the GI50 was 37.4 µM (inactive) in the experiment on U-251; > 100 µM (inactive) in the experiment with SNB-19; > 100 µM (inactive) in the experiment on MOLT-4; > 100 µM (inactive) in the experiment with HOP-92; > 100 µM (inactive) with SW-620; > 100 µM (inactive) in the experiment on M14. Further, the GI50 is > 100 µM (inactive) in the experiment with OVCAR-4; > 100 µM (inactive) in the experiment with NCI/ADR-RES; > 100 µM (inactive) with NCI-H23; > 100 µM (inactive) in the experiment on UO-31; 52.7 µM (inactive) in the experiment on K562.

For the compound `Cn1c(=O)n2n(c1=O)C([S+]([O-])c1ccccc1)C2` (configuration not stated), the GI50 in the experiment with SF-295, in the experiment on HCC 2998, with EKVX, with DU-145, in the experiment on SK-MEL-2 and with SNB-75 was > 100 µM (inactive) each time. The GI50 with U-251 is > 100 µM (inactive); in the experiment on SNB-19, > 100 µM (inactive); with MOLT-4 it was 18.5 µM (inactive); in the experiment with HOP-92, > 100 µM (inactive); in the experiment with SW-620, > 100 µM (inactive); in the experiment with M14, > 100 µM (inactive). The GI50 in the experiment on SF-268, in the experiment on OVCAR-4, in the experiment with NCI/ADR-RES, in the experiment with NCI-H23, with UO-31 and in the experiment on K562 was > 100 µM (inactive) each time. In addition, in the experiment with HOP-62, the GI50 was > 100 µM (inactive).

As to `COc1ccc(C2(O)C(S(=O)(=O)c3ccc(C)cc3)=Cc3ccc(OC)cc32)cc1` (configuration not stated), the GI50 in the experiment on SF-295 was 28.2 µM (inactive); with HCC 2998 it was > 100 µM (inactive); in the experiment with EKVX, 78.2 µM (inactive); in the experiment on DU-145, 71.3 µM (inactive); in the experiment with SK-MEL-2 it was 43.2 µM (inactive); in the experiment on SNB-75 it was 25.9 µM (inactive). Further, the GI50 with U-251 is 41.2 µM (inactive); in the experiment with SNB-19, 43.7 µM (inactive); in the experiment on MOLT-4, > 100 µM (inactive); with SW-620, > 100 µM (inactive); in the experiment on SF-268 it was 31.6 µM (inactive); in the experiment with A498, 44.5 µM (inactive). For the same compound, the GI50 is > 100 µM (inactive) with NCI/ADR-RES, > 100 µM (inactive) in the experiment on NCI-H23, > 100 µM (inactive) in the experiment on K562 and 21.2 µM (inactive) in the experiment on HOP-62.

`OCC1C(OCc2ccccc2)C(OCc2ccccc2)C(OCc2ccccc2)CN1Cc1ccccc1` (configuration not stated): the GI50 was 30.3 µM (inactive) in the experiment on SF-295; 28.2 µM (inactive) with HCC 2998; 84.9 µM (inactive) with EKVX; > 100 µM (inactive) with DU-145; 13 µM (inactive) in the experiment on SNB-75; 27.3 µM (inactive) with U-251. Also, the GI50 in the experiment with SNB-19 was 96.8 µM (inactive); in the experiment on MOLT-4 it was 7.62 µM (inactive); in the experiment on HOP-92, 9.64 µM (inactive); with SW-620, 53 µM (inactive); in the experiment on M14, 37.2 µM (inactive); with SF-268 it was 65.5 µM (inactive). For the same compound, the GI50 was 46.7 µM (inactive) with OVCAR-4; 26.7 µM (inactive) in the experiment on NCI/ADR-RES; 15.4 µM (inactive) with NCI-H23; 18.4 µM (inactive) in the experiment with UO-31; 16.3 µM (inactive) with K562; 33 µM (inactive) in the experiment with HOP-62.

For the compound `NC(=O)c1cn(C2OC(CO)C(O)C2O)c2nc[n+]([O-])c(N)c12` (configuration not stated), the GI50 with SF-295 was 0.262 µM (active); in the experiment on EKVX, 1.21 µM (inactive); with DU-145, 0.104 µM (active); with SK-MEL-2 it was 0.157 µM (active); in the experiment on SNB-75 it was 0.13 µM (active); in the experiment on U-251, 0.285 µM (active). For the same compound, the GI50 with SNB-19 is 0.542 µM (active); with MOLT-4, 0.104 µM (active); with HOP-92, 0.67 µM (active); with SW-620, 0.0409 µM (active); in the experiment with M14, 0.111 µM (active); in the experiment on SF-268 it was 0.23 µM (active). The GI50 is 0.201 µM (active) in the experiment with OVCAR-4; 0.107 µM (active) in the experiment with NCI/ADR-RES; 0.121 µM (active) in the experiment on NCI-H23; 0.382 µM (active) in the experiment with UO-31; 0.34 µM (active) in the experiment with K562; 0.133 µM (active) in the experiment with HOP-62.
